Experimental data reported in article PMC3256188, “Novel Nonphosphorylated Peptides with Conserved Sequences Selectively Bind to Grb7 SH2 Domain with Affinity Comparable to Its Phosphorylated Ligand” (PLoS ONE, 2012).
Entries after “also recorded” stand apart in the source; their conditions may differ.

Tests used:
[1] = target: T1, GFP-Grb7 SH2 domain and 41-mRLUC-3×Flag complex (Homo sapiens, UniProt Q14451); assay: Competition immunoprecipitation, GFP-Grb7 SH2 domain and 41-mRLUC-3×Flag complex; assay type: binding
T1 construct: expressed in transfected cells; host or cells: HEK293T
T1 sequence (Q14451 425-532, one chain of several): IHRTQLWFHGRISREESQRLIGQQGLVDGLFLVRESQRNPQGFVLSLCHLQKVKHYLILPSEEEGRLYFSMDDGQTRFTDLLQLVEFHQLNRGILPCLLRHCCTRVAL
Excerpt: To see whether the nonphosphorylated peptide could effectively compete with phosphorylated ligand for binding to the Grb7 SH2 domain, the phosphorylated ligand pY (1180) (DEEYEpY(1180)MNRRR), which was previously shown to interact with the Grb7 SH2 domain [6], and the nonphosphorylated 41-A ligand ([…]), which contains the first twenty-two amino acid-motif close to the N-terminus of peptide 41, were examine for their abilities to interfere with the GFP-Grb7 SH2 domain and 41-mRLUC-3×Flag complex using immunoprecipitation with anti-GFP antibody.
The phosphorylated ligand pY (1180) (DEEYEpY(1180)MNRRR) from the ErbB3 and the nonphosphorylated peptide 41-A ([…] RV) from nonphosphorylated peptide 41 were synthesized by the China Peptides Co., Ltd. The HPLC purification analysis and MS quality analysis reports were obtained.
HEK293T cells were washed 5 times with ice-cold PBS buffer and scraped off the plates into cell lysis buffer (1% Nonidet P-40, 0.02 M TRIS (pH 7.5), 0.15 M sodium chloride, 0.001 M EDTA, 0.5% sodium deoxycholate, 0.1% SDS and 0.001 M PMSF). Lysates were incubated on ice for 5 minutes, vortexed 2 times for 30 seconds each and centrifuged at 12,000 rpm for 15 minutes at 4°C. After centrifuging twice, the supernatant was incubated with anti-Flag antibody (1∶100, M20008M, Abmart, China) for 6–8 h at 4°C. Protein G agarose (40 µL) was added into 1 mL of the above mixture and coupled to the anti-Flag antibody for 3 h at 4°C. The immunoprecipitates were washed 2–3 times with PBS buffer (PH 7.4), and the sediments were diluted with 5×SDS electrophoresis buffer and heated at 97°C for 10 minutes. The proteins were separated by SDS-PAGE and transferred to PVDF membranes (IPVH00010, Millipore, USA). The membranes were incubated with anti-GFP antibody (1∶2000, P30010, Abmart, China) and goat anti-rabbit secondary antibody (1∶4000, M21002, Abmart, China) to identify target proteins. For the competition analyses, the immunoprecipitation complexes were mixed with anti-Flag antibody and different concentrations of the synthesized phosphorylated ligands or the nonphosphorylated ligands. The proteins were separated by SDS-PAGE, and the SH2 domain of Grb7 protein was analyzed using anti-GFP antibody. Western blot analysis was carried out using the Image J [37], the IC50 values were calculated by regression analyses using SPSS 17.0.

[2] = target: Grb7 SH2 domain; design: method as in earlier work; conditions: binding to Grb7 SH2 domain; calorimetric (title of ref 27); read-out: dissociation constant (Kd); cited from earlier work
Excerpt: Many drugs are designed to target the SH2 domain of Grb7. […] This peptide also serves as a model for chemical drug de ...

[3] = system: Grb7 SH2 domain; assay: Co-immunoprecipitation from transfected HEK293T cells; assay type: binding; conditions: HEK293T co-transfected with peptide-mRLUC-3×Flag and EGFP-Grb7 SH2, 36 h; anti-Flag IP, anti-GFP blot
Excerpt: In the co-immunoprecipitation assay, the mRLUC fragment was generated by PCR amplification. The inserted sequence of the Grb7 SH2 domain was as follows: N- […]-C. This sequence was inserted at the C terminus of the EGFP tag. The sequence of peptide 10 was as follows: N-[…]-C. The sequence of peptide 41 was as follows: N-[…]-C. The sequence of peptide 10CM was as follows: N-[…]-C. The nonphosphorylated peptide and the mRLUC fragment were inserted at the N-terminus of the Flag tag. The mRLUC fragment was fused with the nonphosphorylated peptide so that they could be easily identifiable. The empty vector containing the mRLUC fragment was used as the negative control.
(§1) HEK293T cells at 70%–80% confluency were given fresh DMEM (high glucose) culture medium and transfected with plasmids using the calcium phosphate method. Samples were collected at 36 h after transfection.
HEK293T cells were washed 5 times with ice-cold PBS buffer and scraped off the plates into cell lysis buffer (1% Nonidet P-40, 0.02 M TRIS (pH 7.5), 0.15 M sodium chloride, 0.001 M EDTA, 0.5% sodium deoxycholate, 0.1% SDS and 0.001 M PMSF). […] The proteins were separated by SDS-PAGE, and the SH2 domain of Grb7 protein was analyzed using anti-GFP antibody. Western blot analysis was carried out using the Image J [37], the IC50 values were calculated by regression analyses using SPSS 17.0.

[4] = system: EYFP-tagged Grb7 SH2 domain; assay: Bioluminescence Resonance Energy Transfer (BRET) in HEK293T cells; assay type: cell-based; conditions: 36 h after transfection, EYFP-Grb7 SH2 + mRLUC-tagged peptide, coelenterazine 5.9 µM, eighteen group ratios
Excerpt: For the BRET assay, the EYFP fragment was generated by PCR amplification. The ErbB3-mRLUC plasmid was constructed by the Beijing Sino Biological Inc. The SH2 domain of Grb7 was fused to the EYFP fragment, and the nonphosphorylated peptides 10 and 41 were fused to the mRLUC fragment. The Grb7 SH2 domain sequence was inserted at the C-terminus of the EYFP tag.
as §1
In BRET, the Renilla luciferase (mRLUC) is fused to the candidate protein, and the green fluorescent protein mutant (EYFP) is fused to the target protein. Interactions between the two fused proteins bring the luciferase and the green fluorescent protein into close proximity, which promotes resonance energy transfer from mRLUC to EYFP [38]. Then EYFP is […] at 530 nm, and the emission is used to determine the binding between the two interacting proteins. In this study, HEK293T cells were collected at 36 h after transfection, 100 µL of mixed cell suspension was added to the u-bottom 96-well microtiter plates (Corning, USA) before measurement. The measurement of bioluminescence, with rasters of 460/40 nm and 518/20 nm, was performed on Synergy4 Multi-Mode Microplates Readers (BioTek, USA). The BRET reaction was initiated by 5.9 µM coelenterazine (Promega, USA). Data were analyzed by one-factor analysis of variance using SPSS 17.0.

[5] = system: SK-BR-3 breast cancer cells; assay: MTS cell proliferation assay; assay type: cell-based; conditions: double-factor variance analysis, n = 10, p<0.001, Figure 4B
Method: For the cell proliferation assay, the anti-Grb7 antibody (N-20, Santa Cruz Biotechnology, USA) and the anti-Flag antibody (M20008M, Abmart, China) were used for the western blot, and MTS (Promega, USA) was used for the analysis of cell proliferation.
The MTS cell proliferation assay was performed to analyze the proliferation of SK-BR-3 breast cancer cells (Cell culture center of PUMC, China) according to the manufacturer's instructions (Promega, USA). SK-BR-3 cells at 70%–80% confluency were transiently transfected respectively with plasmids of 41-mRLUC-3×Flag or mRLUC-3×Flag and Mega Tran 1.0 (OriGene, USA). Beginning from 12 h after transfection, 400 µg/mL G418 (11811-023, Invitrogen, USA) was used to select for the transfected cells. The u-bottom 96-well microtiter plates (Corning, USA) were seeded with approximately 7.50×10^3 cells per well at 18 h after transfection. […] The absorbance at 492 nm of transfected cells and control DMEM medium was measured separately at 18 h, 24 h, 36 h, 48 h and 60 h after transfection on Synergy4 Multi-Mode Microplates Readers (BioTek, USA). The absorbance was adjusted by differences in the absorbance between cell culture medium and control medium without seeded cells. The data were analyzed by double-factor variance analysis using SPSS 17.0.

Substance: DEEYEpY(1180)MNRRR [pY (1180), phosphorylated ligand pY (1180) (DEEYEpY(1180)MNRRR) from the ErbB3, reference compound]
- interference with binding of the Grb7 SH2 domain to peptide 41 ([1]; 0.0072 mM): did not significantly interfere
- interference with binding of the Grb7 SH2 domain to peptide 41 ([1]; 0.036 mM): did not significantly interfere
- interference with binding of the Grb7 SH2 domain to peptide 41 ([1]; 0.18 mM): nearly abolished
- disruptive effect on the Grb7 SH2 domain/peptide 41 interaction ([1]; Figure 3A, overall, concentration not given): abolished the association between the Grb7 SH2 domain and nonphosphorylated peptide 41
- binding affinity to the Grb7 SH2 domain, comparison of 41-A and pY (1180) ([1]; in vitro competition, in words): at least comparable binding affinities to the Grb7 SH2 domain
- Kd [2]: ~1150 nM

Substance: N-VGTWTTRGPWCPCVAVGIPTQPTTSSEPSPPSNPPWDPGRVLLGRIVWPGLLALGIPTHHQNDTYNSPHAHPNRDP-C [peptide 41, nonphosphorylated peptide with two twenty-two residue motifs, 41-A and 41-B]
- pull-down of the Grb7 SH2 domain (co-immunoprecipitation) [3]: pulled down the Grb7 SH2 domain; also recorded: co-immunoprecipitated
- BRET luminescence ratio of 530/480 nm [4]: significantly stronger
- binding to the Grb7 SH2 domain in the absence of competitor ([1]; in the absence of peptide pY (1180) and peptide 41-A, Figure 3A): could bind to the Grb7 SH2 domain
- adjusted absorbance between transfected cell groups and between time points [5]: Statistically significant differences existed in both of groups
